pEC50: −log10 of the molar value. Structures can show the parent of a compound that is named as a salt.
Tested on: HIV-1 single-round infectious reporter virus
Experiment: Single-round infectious HIV-1 luciferase reporter virus infection of HeLa CD4 cells (antiviral EC50)
Assay type: cell-based
Details: Human immunodeficiency virus 1, HeLa, read-out: EC50 Group from Table 3
Procedure, shortened: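 Compound (≤10 μM final, 10 concentrations) was added to HeLa CD4 cells together with luciferase-reporter HIV-1 pseudovirus (nef replaced by luciferase, envelope supplied in trans) at MOI ~0.01. Cells were lysed 72 h post-infection at 37 °C for luminescence; percent inhibition versus untreated infection, fitted four-parameter logistic for EC50.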

Row | SMILES | pEC50
1 | O=C(C(=O)N1CCN(c2[nH]nnc2-c2ccccc2)CC1)c1c[nH]c2c(-n3ccnn3)ncc(F)c12 [G-8a] | > 6.30
2 | COc1cnc(-c2cccnc2)c2[nH]cc(C(=O)C(=O)N3CCN(c4nnnn4-c4ccccn4)CC3)c12 [H-3] | > 6.30
3 | COc1cnc(-c2cc[nH]n2)c2[nH]cc(C(=O)C(=O)N3CCN(c4nnnn4-c4ccccn4)CC3)c12 [B-72] | > 6.30
4 | COc1cnc(-n2cnc(C)n2)c2[nH]cc(C(=O)C(=O)N3CCN(c4ncccc4C#N)CC3)c12 [D-1] | > 6.30
5 | COc1cnc(-c2ccc(N3CCN(C(=O)OC(C)(C)C)CC3)cc2)c2[nH]cc(C(=O)C(=O)N3CCN(c4nnnn4-c4ccccn4)CC3)c12 [B-81] | > 6.30
6 | COc1cnc(-n2cnc(C)n2)c2[nH]cc(C(=O)C(=O)N3CCN(c4nc5ccccc5nc4-n4nc(C)cc4C)CC3)c12 [D-9] | < 6.30
7 | COc1ncc(OC)c2c(C(=O)C(=O)N3CCN(c4nnnn4-c4ccccc4)CC3)c[nH]c12 [A-12] | > 6.30
8 | O=C(C(=O)N1CCN(c2c[nH]nc2-c2ccccc2)CC1)c1c[nH]c2c(-n3ccnn3)ncc(F)c12 [G-5a] | > 6.30
9 | O=C(c1nccs1)c1cccnc1N1CCN(C(=O)C(=O)c2c[nH]c3cccc(F)c23)CC1 [A-67] | < 6.30
10 | COc1cnc(-c2cnccc2C)c2[nH]cc(C(=O)C(=O)N3CCN(c4nnnn4-c4ccccn4)CC3)c12 [H-7] | > 6.30
11 | C[C@@H]1CN(c2nnnn2-c2ccccc2)C[C@H](C)N1C(=O)C(=O)c1c[nH]c2c(-n3ccnn3)ncc(F)c12 [C-1, 1-((2R,6S)-2,6-dimethyl-4-(1-phenyl-1H-tetrazol-5-yl)piperazin-1-yl)-2-(4-fluoro-7-(1H-1,2,3-triazol-1-yl)-1H-pyrrolo[2,3-c]pyridin-3-yl)ethane-1,2-dione] | > 6.30
12 | O=C(C(=O)N1CCN(c2nnnn2-c2ccccc2)CC1)c1c[nH]c2c(-c3cc(C(=O)N4CCN(CCO)CC4)[nH]n3)ncc(F)c12 [F-8] | > 6.30
13 | O=C(C(=O)N1CCN(c2nnnn2-c2ncco2)CC1)c1c[nH]c2c(-n3ccnn3)ncc(F)c12 [E-6] | > 6.30
14 | COc1cnc(-n2cnc(C)n2)c2[nH]cc(C(=O)C(=O)N3CCN(c4cn(CC#N)nc4-c4ccccc4)CC3)c12 [G-21] | > 6.30
15 | O=C(C(=O)N1CCC(n2ccnc2-c2ccccc2)CC1)c1c[nH]c2c(-n3ccnn3)ncc(F)c12 [G-11a] | > 6.30
16 | O=C(NC1CCCCC1)c1cccnc1N1CCN(C(=O)C(=O)c2c[nH]c3c(-n4ccnn4)ncc(F)c23)CC1 [D-34] | > 6.30
17 | N#CCCC(=O)c1cccnc1N1CCN(C(=O)C(=O)c2c[nH]c3c(-n4ccnn4)ncc(F)c23)CC1 [D-45] | < 6.30
18 | O=C(C(=O)N1CCN(c2cn(Cc3ccccn3)nc2-c2ccccc2)CC1)c1c[nH]c2c(-n3ccnn3)ncc(F)c12 [G-7b] | > 6.30
19 | COc1cnc(-n2cnc(C)n2)c2[nH]cc(C(=O)C(=O)N3CCN(c4ncccc4I)CC3)c12 [D-2] | > 6.30
20 | Cc1nnc(N2CCN(C(=O)C(=O)c3c[nH]c4c(-n5ccnn5)ncc(F)c34)CC2)n1-c1ccccc1 [A-47] | > 6.30
21 | COc1cnc(-n2cnc(C)n2)c2[nH]cc(C(=O)C(=O)N3CCN(c4nc(N(C)C)n(-c5ccccc5)n4)CC3)c12 [G-4d] | > 6.30
22 | COc1cnc(-c2cc(CNCCN(C)C)[nH]n2)c2[nH]cc(C(=O)C(=O)N3CCN(c4nnnn4-c4ccccc4)CC3)c12 [B-25, 1-(7-(5-((2-(dimethylamino)ethylamino)methyl)-1H-pyrazol-3-yl)-4-methoxy-1H-pyrrolo[2,3-c]pyridin-3-yl)-2-(4-(1-phenyl-1H-tetrazol-5-yl)piperazin-1-yl)ethane-1,2-dione TFA] | > 6.30
23 | COc1cnc(-c2ccc(N3CCNCC3)cc2)c2[nH]cc(C(=O)C(=O)N3CCN(c4nnnn4-c4ccccn4)CC3)c12 [B-82] | > 6.30
24 | O=C(C(=O)N1CCN(c2nnnn2-c2ccccc2)CC1)c1c[nH]c2c(-n3ccnn3)ncc(F)c12 [A-5] | > 6.30
25 | N#Cc1cccc(CC(=O)c2cccnc2N2CCN(C(=O)C(=O)c3c[nH]c4c(-n5ccnn5)ncc(F)c34)CC2)c1 [D-48] | > 6.30

Reference: patent US7807676B2, “Diketo-Piperazine and Piperidine derivatives as antiviral agents” (priority 2006, dated 2010)
